Values belong to the compound of their own block, whether it stands above or below them. Active and inactive are the calls of the source. The rule behind the calls is not given here.
Columns and labels:
[1] = target: T1, High affinity 3',5'-cyclic-AMP phosphodiesterase 7A (Homo sapiens, UniProt Q13946); assay: Inhibition of cloned human recombinant PDE7A assessed as [3H]cAMP hydrolysis by radiometric assay
Mus musculus = assay: Antiparkinsonian activity in C57BL/6 mouse assessed as decrease in MPTP-induced vertical rearing behavior impairment at 12.5 mg/kg, ip administered 30 mins on day 7 post MPTP challenge; type: functional, organism-based; design: dose 12.5 mg/kg
[2] = target: T1, High affinity 3',5'-cyclic-AMP phosphodiesterase 7A; assay: Inhibition of cloned human recombinant PDE7A assessed as [3H]cAMP hydrolysis at 1 uM by radiometric assay
[3] = target: High affinity cGMP-specific 3',5'-cyclic phosphodiesterase 9A (Homo sapiens) (UniProt O76083); assay: Inhibition of cloned human recombinant PDE9A2 assessed as [3H]cAMP hydrolysis at 10 uM by radiometric assay
Sequence of High affinity cGMP-specific 3',5'-cyclic phosphodiesterase 9A (Homo sapiens) (O76083 whole entry): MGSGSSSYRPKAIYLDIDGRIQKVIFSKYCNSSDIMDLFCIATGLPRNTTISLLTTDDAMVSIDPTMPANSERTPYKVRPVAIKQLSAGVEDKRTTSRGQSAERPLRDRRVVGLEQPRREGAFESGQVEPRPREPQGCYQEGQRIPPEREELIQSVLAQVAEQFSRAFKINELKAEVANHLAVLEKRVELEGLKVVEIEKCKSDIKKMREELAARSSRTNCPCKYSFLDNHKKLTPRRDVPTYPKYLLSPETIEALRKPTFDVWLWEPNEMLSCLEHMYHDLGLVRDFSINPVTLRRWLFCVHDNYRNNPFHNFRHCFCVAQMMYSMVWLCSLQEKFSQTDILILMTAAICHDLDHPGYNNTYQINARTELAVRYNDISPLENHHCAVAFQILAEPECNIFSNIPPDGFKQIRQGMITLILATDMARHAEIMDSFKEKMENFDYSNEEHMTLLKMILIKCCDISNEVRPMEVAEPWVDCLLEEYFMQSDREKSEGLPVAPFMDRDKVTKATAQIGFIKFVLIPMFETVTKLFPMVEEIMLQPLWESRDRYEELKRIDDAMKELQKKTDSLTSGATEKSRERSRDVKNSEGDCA

[4] = target: cGMP-inhibited 3',5'-cyclic phosphodiesterase 3A (Homo sapiens) (UniProt Q14432); assay: Inhibition of cloned human recombinant PDE3A assessed as [3H]cAMP hydrolysis at 10 uM by radiometric assay
[5] = Drug uptake in C57 mouse brain at 10 mg/kg, ip after 30 mins; type: ADME, organism-based; design: dose 10 mg/kg, route intraperitoneal; conditions: read-out: Drug uptake
[6] = Cmax in C57 mouse at 10 mg/kg, ip; type: ADME, organism-based; design: dose 10 mg/kg, route intraperitoneal; conditions: in vivo
[7] = Metabolic stability in human liver microsomes assessed as compound remaining after 60 mins; type: ADME, Microsome; conditions: read-out: Stability
[8] = target: Dual specificity calcium/calmodulin-dependent 3',5'-cyclic nucleotide phosphodiesterase 1A (Homo sapiens) (UniProt P54750); assay: Inhibition of cloned human recombinant PDE1A assessed as [3H]cAMP hydrolysis at 10 uM by radiometric assay
Sequence of Dual specificity calcium/calmodulin-dependent 3',5'-cyclic nucleotide phosphodiesterase 1A (Homo sapiens) (P54750 whole entry): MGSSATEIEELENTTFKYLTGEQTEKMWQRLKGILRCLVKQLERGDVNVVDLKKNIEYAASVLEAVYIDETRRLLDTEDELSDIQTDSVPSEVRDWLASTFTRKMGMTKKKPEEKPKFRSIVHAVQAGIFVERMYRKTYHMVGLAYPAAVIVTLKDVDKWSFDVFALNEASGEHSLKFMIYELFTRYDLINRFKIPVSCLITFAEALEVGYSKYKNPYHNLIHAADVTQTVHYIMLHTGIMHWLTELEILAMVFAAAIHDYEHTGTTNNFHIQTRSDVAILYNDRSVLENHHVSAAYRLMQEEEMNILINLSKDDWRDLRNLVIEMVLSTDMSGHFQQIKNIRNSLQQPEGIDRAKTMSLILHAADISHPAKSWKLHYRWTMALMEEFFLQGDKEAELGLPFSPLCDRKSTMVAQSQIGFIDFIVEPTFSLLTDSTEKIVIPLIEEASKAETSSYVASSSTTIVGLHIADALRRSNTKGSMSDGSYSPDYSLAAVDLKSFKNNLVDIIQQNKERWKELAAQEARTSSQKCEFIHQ

[9] = target: cGMP-specific 3',5'-cyclic phosphodiesterase (Homo sapiens) (UniProt O76074); assay: Inhibition of cloned human recombinant PDE5A assessed as [3H]cAMP hydrolysis at 10 uM by radiometric assay
[10] = target: cAMP and cAMP-inhibited cGMP 3',5'-cyclic phosphodiesterase 10A (Homo sapiens) (UniProt Q9Y233); assay: Inhibition of cloned human recombinant PDE10A assessed as [3H]cAMP hydrolysis at 10 uM by radiometric assay
Sequence of cAMP and cAMP-inhibited cGMP 3',5'-cyclic phosphodiesterase 10A (Homo sapiens) (Q9Y233 whole entry): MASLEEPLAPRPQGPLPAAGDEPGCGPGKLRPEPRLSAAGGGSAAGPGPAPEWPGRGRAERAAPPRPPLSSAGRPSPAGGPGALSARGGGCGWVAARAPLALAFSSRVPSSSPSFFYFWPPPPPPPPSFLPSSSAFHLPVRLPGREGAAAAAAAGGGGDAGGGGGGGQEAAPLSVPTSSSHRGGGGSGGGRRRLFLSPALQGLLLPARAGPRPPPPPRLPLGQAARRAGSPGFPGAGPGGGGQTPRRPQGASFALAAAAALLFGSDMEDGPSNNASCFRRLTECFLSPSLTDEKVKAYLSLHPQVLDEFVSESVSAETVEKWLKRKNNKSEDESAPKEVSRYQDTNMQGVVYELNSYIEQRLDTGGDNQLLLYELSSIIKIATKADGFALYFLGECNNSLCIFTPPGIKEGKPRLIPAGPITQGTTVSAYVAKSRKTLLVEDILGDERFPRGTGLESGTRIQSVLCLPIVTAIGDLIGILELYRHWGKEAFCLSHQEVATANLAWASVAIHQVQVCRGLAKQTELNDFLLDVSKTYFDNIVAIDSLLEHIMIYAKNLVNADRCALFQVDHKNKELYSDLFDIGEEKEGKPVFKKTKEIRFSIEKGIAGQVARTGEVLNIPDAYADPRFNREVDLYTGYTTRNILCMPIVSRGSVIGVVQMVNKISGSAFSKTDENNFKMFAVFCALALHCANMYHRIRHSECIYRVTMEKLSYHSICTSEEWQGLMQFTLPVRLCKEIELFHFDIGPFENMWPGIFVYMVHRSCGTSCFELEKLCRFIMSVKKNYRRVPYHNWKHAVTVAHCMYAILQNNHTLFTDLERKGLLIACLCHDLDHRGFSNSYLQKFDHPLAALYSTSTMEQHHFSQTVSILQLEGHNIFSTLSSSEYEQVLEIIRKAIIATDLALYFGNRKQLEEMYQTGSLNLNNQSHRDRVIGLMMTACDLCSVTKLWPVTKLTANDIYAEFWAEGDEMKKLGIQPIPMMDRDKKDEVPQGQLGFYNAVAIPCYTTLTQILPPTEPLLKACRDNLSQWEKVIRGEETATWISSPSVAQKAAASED

[11] = AUC in C57 mouse at 10 mg/kg, ip; type: ADME, organism-based; design: dose 10 mg/kg, route intraperitoneal; conditions: plasma
[12] = Ratio of drug level in brain to plasma in C57 mouse at 10 mg/kg, ip after 30 mins; type: ADME, organism-based; design: dose 10 mg/kg, route intraperitoneal; conditions: read-out: BPR
[13] = Metabolic stability in rat liver microsomes assessed as compound remaining after 60 mins; type: ADME, Microsome; conditions: read-out: Stability
[14] = Tmax in C57 mouse at 10 mg/kg, ip; type: ADME, organism-based; design: dose 10 mg/kg, route intraperitoneal; conditions: in vivo
[15] = target: 3',5'-cyclic-AMP phosphodiesterase 4D (Homo sapiens, UniProt Q08499); assay: Inhibition of cloned human recombinant PDE4D assessed as [3H]cAMP hydrolysis at 10 uM by radiometric assay
[16] = Plasma concentration in C57 mouse at 10 mg/kg, ip after 30 mins; type: ADME, organism-based; design: dose 10 mg/kg, route intraperitoneal
[17] = target: High affinity cAMP-specific and IBMX-insensitive 3',5'-cyclic phosphodiesterase 8A (Homo sapiens) (UniProt O60658); assay: Inhibition of cloned human recombinant PDE8A1 assessed as [3H]cAMP hydrolysis at 10 uM by radiometric assay
[18] = target: 3',5'-cyclic-AMP phosphodiesterase 7B (Homo sapiens, UniProt Q9NP56); assay: Inhibition of cloned human recombinant PDE7B assessed as [3H]cAMP hydrolysis by radiometric assay
Sequence of 3',5'-cyclic-AMP phosphodiesterase 7B (Q9NP56 whole entry): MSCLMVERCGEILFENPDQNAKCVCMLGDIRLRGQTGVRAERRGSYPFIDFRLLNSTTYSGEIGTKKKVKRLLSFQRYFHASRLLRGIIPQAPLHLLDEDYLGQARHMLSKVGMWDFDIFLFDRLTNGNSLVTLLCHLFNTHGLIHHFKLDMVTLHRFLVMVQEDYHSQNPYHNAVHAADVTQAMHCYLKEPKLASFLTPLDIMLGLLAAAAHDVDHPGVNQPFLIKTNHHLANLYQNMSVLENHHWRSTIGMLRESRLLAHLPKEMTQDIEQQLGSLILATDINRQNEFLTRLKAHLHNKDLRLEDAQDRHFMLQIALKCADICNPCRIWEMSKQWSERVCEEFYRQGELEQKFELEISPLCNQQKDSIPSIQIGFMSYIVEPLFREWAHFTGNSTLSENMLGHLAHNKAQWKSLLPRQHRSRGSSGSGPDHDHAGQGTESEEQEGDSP

[19] = target: Dual 3',5'-cyclic-AMP and -GMP phosphodiesterase 11A (Homo sapiens) (UniProt Q9HCR9); assay: Inhibition of cloned human recombinant PDE11A assessed as [3H]cAMP hydrolysis at 10 uM by radiometric assay
Sequence of Dual 3',5'-cyclic-AMP and -GMP phosphodiesterase 11A (Homo sapiens) (Q9HCR9 whole entry, looked up): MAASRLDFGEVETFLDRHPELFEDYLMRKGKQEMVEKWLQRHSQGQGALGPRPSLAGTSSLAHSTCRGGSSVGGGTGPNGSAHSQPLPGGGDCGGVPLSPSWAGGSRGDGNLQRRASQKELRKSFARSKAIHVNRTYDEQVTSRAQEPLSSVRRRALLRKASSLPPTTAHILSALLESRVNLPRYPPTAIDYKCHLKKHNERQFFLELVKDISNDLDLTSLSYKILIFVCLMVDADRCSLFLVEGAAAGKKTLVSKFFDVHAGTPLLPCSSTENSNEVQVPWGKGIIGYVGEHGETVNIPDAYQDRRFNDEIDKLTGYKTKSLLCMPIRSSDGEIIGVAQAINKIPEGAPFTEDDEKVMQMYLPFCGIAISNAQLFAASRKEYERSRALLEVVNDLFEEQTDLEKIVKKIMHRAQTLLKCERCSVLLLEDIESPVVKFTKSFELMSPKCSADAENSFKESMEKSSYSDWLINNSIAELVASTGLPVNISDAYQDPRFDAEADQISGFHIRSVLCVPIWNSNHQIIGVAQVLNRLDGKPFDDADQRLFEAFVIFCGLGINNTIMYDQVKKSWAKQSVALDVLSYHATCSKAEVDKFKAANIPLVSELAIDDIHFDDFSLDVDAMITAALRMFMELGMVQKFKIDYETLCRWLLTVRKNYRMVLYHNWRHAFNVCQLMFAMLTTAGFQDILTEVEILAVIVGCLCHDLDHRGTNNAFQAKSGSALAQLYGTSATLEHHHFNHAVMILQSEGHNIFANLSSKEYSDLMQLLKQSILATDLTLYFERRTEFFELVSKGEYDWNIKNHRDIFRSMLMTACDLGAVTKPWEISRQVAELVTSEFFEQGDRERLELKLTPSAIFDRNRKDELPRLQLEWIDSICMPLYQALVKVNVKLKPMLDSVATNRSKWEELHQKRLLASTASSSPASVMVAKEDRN

[20] = Metabolic stability in mouse liver microsomes assessed as compound remaining after 60 mins; type: ADME, Microsome; conditions: read-out: Stability
[21] = target: cGMP-dependent 3',5'-cyclic phosphodiesterase (Homo sapiens) (UniProt O00408); assay: Inhibition of cloned human recombinant PDE2A assessed as [3H]cAMP hydrolysis at 10 uM by radiometric assay
Sequence of cGMP-dependent 3',5'-cyclic phosphodiesterase (Homo sapiens) (O00408 whole entry): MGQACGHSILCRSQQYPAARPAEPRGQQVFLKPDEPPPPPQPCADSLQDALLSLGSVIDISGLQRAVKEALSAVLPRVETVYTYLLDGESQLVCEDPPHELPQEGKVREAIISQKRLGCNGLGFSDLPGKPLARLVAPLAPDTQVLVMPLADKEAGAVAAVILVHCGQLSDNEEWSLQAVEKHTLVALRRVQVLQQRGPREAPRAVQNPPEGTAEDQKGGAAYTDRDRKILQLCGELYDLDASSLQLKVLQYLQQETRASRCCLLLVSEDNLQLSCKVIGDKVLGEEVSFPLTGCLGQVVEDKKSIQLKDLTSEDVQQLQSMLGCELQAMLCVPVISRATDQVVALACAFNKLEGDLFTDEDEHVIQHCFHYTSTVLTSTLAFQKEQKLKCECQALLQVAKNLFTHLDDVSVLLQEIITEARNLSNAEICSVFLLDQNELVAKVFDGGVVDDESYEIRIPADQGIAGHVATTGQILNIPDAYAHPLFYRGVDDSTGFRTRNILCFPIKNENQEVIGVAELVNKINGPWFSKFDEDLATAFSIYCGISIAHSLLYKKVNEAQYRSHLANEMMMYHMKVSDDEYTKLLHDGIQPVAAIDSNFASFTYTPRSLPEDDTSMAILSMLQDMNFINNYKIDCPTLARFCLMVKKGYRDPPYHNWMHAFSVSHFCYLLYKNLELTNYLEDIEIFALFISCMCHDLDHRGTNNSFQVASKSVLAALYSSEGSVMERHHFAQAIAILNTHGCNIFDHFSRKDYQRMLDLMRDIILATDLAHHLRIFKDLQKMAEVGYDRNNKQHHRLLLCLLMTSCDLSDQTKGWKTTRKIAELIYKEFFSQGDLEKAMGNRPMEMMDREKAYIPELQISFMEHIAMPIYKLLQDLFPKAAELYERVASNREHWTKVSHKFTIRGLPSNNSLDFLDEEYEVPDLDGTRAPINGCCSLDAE

T1 sequence (Q13946 whole entry): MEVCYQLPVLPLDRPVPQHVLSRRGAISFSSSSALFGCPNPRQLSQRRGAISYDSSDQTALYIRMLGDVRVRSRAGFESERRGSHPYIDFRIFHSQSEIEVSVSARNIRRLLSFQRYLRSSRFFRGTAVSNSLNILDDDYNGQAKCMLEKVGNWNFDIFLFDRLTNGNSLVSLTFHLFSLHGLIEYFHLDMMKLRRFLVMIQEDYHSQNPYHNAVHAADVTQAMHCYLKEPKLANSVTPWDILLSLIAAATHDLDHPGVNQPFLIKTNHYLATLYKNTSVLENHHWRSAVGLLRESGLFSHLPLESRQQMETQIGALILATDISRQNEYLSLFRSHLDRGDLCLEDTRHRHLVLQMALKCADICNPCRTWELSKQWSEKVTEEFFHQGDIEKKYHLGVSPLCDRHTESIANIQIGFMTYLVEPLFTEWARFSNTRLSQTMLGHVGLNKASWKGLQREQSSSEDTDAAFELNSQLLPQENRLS

Structure (SMILES): COc1cc(-c2n[nH]c(=O)o2)ccc1-c1nc2c(C)nn(C3CCCCC3)c(=O)c2[nH]1
IC50 [1]: 0.068 µM

Structure (SMILES): NC(CO)C(=O)NNCc1ccc(O)c(O)c1O (centres undefined)
Activity (Mus musculus): Active

Structure (SMILES): COc1cc(N2CCC(N)CC2)ccc1-c1nc2c(C)nn(C3CCCC3)c(=O)c2[nH]1
inhibition [2]: 89%

Structure (SMILES): COc1cc(O[C@@H]2CCNC2)ccc1-c1nc2c(C)nn(C3CCCCC3)c(=O)c2[nH]1
IC50 [1]: 0.055 µM

Structure (SMILES): COc1cc(-c2cn[nH]c2)ccc1-c1nc2c(C)nn(C3CCCCC3)c(=O)c2[nH]1
IC50 [1]: 0.045 µM

Structure (SMILES): COc1cc(CCC(N)=O)ccc1-c1nc2c(C)nn(C3CCCCC3)c(=O)c2[nH]1
IC50 [1]: 0.093 µM

Structure (SMILES): COc1cc(C2CC2C(N)=O)ccc1-c1nc2c(C)nn(C3CCCCC3)c(=O)c2[nH]1 (centres undefined)
IC50 [1]: 0.003 µM

Structure (SMILES): COc1cc(N2CCC(N)CC2)ccc1-c1nc2c(C)nn(C3CCCCC3)c(=O)c2[nH]1
inhibition [3]: 9% | inhibition [4]: 2% | concentration at 0.5 h [5]: 46 ng/g | Cmax [6]: 902 ng/mL | remaining at 1 h [7]: 100% | inhibition [8]: 16% | inhibition [9]: 32% | inhibition [10]: 40% | AUC [11]: 2300 ng·h/mL | Kp at 0.5 h [12]: 0.1 | remaining at 1 h [13]: 100% | Tmax [14]: 4 h | inhibition [15]: 81% | concentration at 0.5 h [16]: 451 ng/mL | inhibition [17]: 6% | IC50 [18]: 0.011 µM | inhibition [19]: 44% | inhibition [2]: 96% | remaining at 1 h [20]: 44% | inhibition [21]: 40% | IC50 [1]: 0.027 µM

Results, then the compound that gave them:

IC50 [1]: 0.053 µM
Structure (SMILES): COc1cc(N2CC(O)C2)ccc1-c1nc2c(C)nn(C3CCCCC3)c(=O)c2[nH]1

IC50 [1]: 0.033 µM
Structure (SMILES): COc1cc(N2CCCC(O)CC2)ccc1-c1nc2c(C)nn(C3CCCCC3)c(=O)c2[nH]1 (centres undefined)

IC50 [1]: 0.024 µM
Structure (SMILES): CNC(=O)Nc1ccc(-c2nc3c(C)nn(C4CCCCC4)c(=O)c3[nH]2)c(OC)c1

IC50 [1]: 0.073 µM
Structure (SMILES): COc1cc(N2CC(N)C2)ccc1-c1nc2c(C)nn(C3CCCCC3)c(=O)c2[nH]1

IC50 [1]: 0.089 µM
Structure (SMILES): COc1cc(/C=C/C(N)=O)ccc1-c1nc2c(C)nn(C3CCCCC3)c(=O)c2[nH]1

IC50 [1]: 0.081 µM
Structure (SMILES): COc1cc(N2CCC(O)CC2)ccc1-c1nc2c(C)nn(C3CCCCC3)c(=O)c2[nH]1
